Assays:
HCT-116 = test: NCI in vitro DTP human cell line screen, HCT-116; assay type: cell-based; settings: Colon Cancer, 1.00E−5 Molar
Description: (§1) Then, a cell toxicity assay of the cancer lines made by National Cancer Institute will be discussed as follows. The cell toxicity assay is performed by choosing ten compounds (existing certification numbers) from the 59 compounds disclosed in the present invention first.

K562 = test: NCI in vitro DTP human cell line screen, K562; assay type: cell-based; settings: Leukemia, 1.00E−5 Molar
Description: as §1

CAKI-1 = test: NCI in vitro DTP human cell line screen, CAKI-1; assay type: cell-based; settings: Renal Cancer, 1.00E−5 Molar
Description: as §1

UACC-62 = test: NCI in vitro DTP human cell line screen, UACC-62; assay type: cell-based; settings: Melanoma, 1.00E−5 Molar
Description: as §1

UO-31 = test: NCI in vitro DTP human cell line screen, UO-31; assay type: cell-based; settings: Renal Cancer, 1.00E−5 Molar
Description: as §1

A3 cell lines = test: MTT assay, A3 cell lines (lung cancer stem cell); assay type: cell-based
From the text: Please to FIG. 4B, various cell viabilities of the A3 cell lines can be obtained through the MTT assay and illustrated in FIG. 4B while the compounds No. 1˜30 are used to treat A3 cell lines, wherein A3 cell lines are lung cancer stem cell.

SR = test: NCI in vitro DTP human cell line screen, SR; assay type: cell-based; settings: Leukemia, 1.00E−5 Molar
Description: as §1

SN12C = test: NCI in vitro DTP human cell line screen, SN12C; assay type: cell-based; settings: Renal Cancer, 1.00E−5 Molar
Description: as §1

OVCAR-4 = test: NCI in vitro DTP human cell line screen, OVCAR-4; assay type: cell-based; settings: Ovarian Cancer, 1.00E−5 Molar
Description: as §1

U251 = test: NCI in vitro DTP human cell line screen, U251; assay type: cell-based; settings: CNS Cancer, 1.00E−5 Molar
Description: as §1

RPMI-8226 = test: NCI in vitro DTP human cell line screen, RPMI-8226; assay type: cell-based; settings: Leukemia, 1.00E−5 Molar
Description: as §1

OVCAR-8 = test: NCI in vitro DTP human cell line screen, OVCAR-8; assay type: cell-based; settings: Ovarian Cancer, 1.00E−5 Molar
Description: as §1

CCRF-CEM = test: NCI in vitro DTP human cell line screen, CCRF-CEM; assay type: cell-based; settings: Leukemia, 1.00E−5 Molar
Description: as §1

SF-295 = test: NCI in vitro DTP human cell line screen, SF-295; assay type: cell-based; settings: CNS Cancer, 1.00E−5 Molar
Description: as §1

UACC-257 = test: NCI in vitro DTP human cell line screen, UACC-257; assay type: cell-based; settings: Melanoma, 1.00E−5 Molar
Description: as §1

A control cell lines = test: MTT assay, A control cell lines (lung cancer cell); assay type: cell-based
From the text: Please refer to Table 1 and FIGS. 4A-4C. According to a MTT assay (Table 1), various cell viabilities of the A control cell lines can be obtained and illustrated in FIG. 4A while the compounds No. 2˜30 are used to treat A control cell lines, wherein A control cell lines are lung cancer cell.

SK-OV-3 = test: NCI in vitro DTP human cell line screen, SK-OV-3; assay type: cell-based; settings: Ovarian Cancer, 1.00E−5 Molar
Description: as §1

EKVX = test: NCI in vitro DTP human cell line screen, EKVX; assay type: cell-based; settings: Non-Small Cell Lung Cancer, 1.00E−5 Molar
Description: as §1

HCC-2998 = test: NCI in vitro DTP human cell line screen, HCC-2998; assay type: cell-based; settings: Colon Cancer, 1.00E−5 Molar
Description: as §1

RXF 393 = test: NCI in vitro DTP human cell line screen, RXF 393; assay type: cell-based; settings: Renal Cancer, 1.00E−5 Molar
Description: as §1

KM12 = test: NCI in vitro DTP human cell line screen, KM12; assay type: cell-based; settings: Colon Cancer, 1.00E−5 Molar
Description: as §1

DU145 = test: NCI in vitro DTP human cell line screen, DU145; assay type: cell-based; settings: Prostate Cancer, 1.00E−5 Molar
Description: as §1

BT-549 = test: NCI in vitro DTP human cell line screen, BT-549; assay type: cell-based; settings: Breast Cancer, 1.00E−5 Molar
Description: as §1

COLO 205 = test: NCI in vitro DTP human cell line screen, COLO 205; assay type: cell-based; settings: Colon Cancer, 1.00E−5 Molar
Description: as §1

HOP-92 = test: NCI in vitro DTP human cell line screen, HOP-92; assay type: cell-based; settings: Non-Small Cell Lung Cancer, 1.00E−5 Molar
Description: as §1

[1] = MTT assay, HEL299 fibroblast; assay type: cell-based; settings: human
From the text: Please refer to FIG. 4C, various cell viabilities of the HEL299 cell lines can be obtained through the MTT assay while the compounds No. 1˜30 are used to treat HEL299 cell lines, wherein HEL299 cell lines are fibroblast.

SW-620 = test: NCI in vitro DTP human cell line screen, SW-620; assay type: cell-based; settings: Colon Cancer, 1.00E−5 Molar
Description: as §1

SK-MEL-28 = test: NCI in vitro DTP human cell line screen, SK-MEL-28; assay type: cell-based; settings: Melanoma, 1.00E−5 Molar
Description: as §1

NCI-H226 = test: NCI in vitro DTP human cell line screen, NCI-H226; assay type: cell-based; settings: Non-Small Cell Lung Cancer, 1.00E−5 Molar
Description: as §1

MDA-MB-435 = test: NCI in vitro DTP human cell line screen, MDA-MB-435; assay type: cell-based; settings: Melanoma, 1.00E−5 Molar
Description: as §1

MOLT-4 = test: NCI in vitro DTP human cell line screen, MOLT-4; assay type: cell-based; settings: Leukemia, 1.00E−5 Molar
Description: as §1

SF-268 = test: NCI in vitro DTP human cell line screen, SF-268; assay type: cell-based; settings: CNS Cancer, 1.00E−5 Molar
Description: as §1

SK-MEL-5 = test: NCI in vitro DTP human cell line screen, SK-MEL-5; assay type: cell-based; settings: Melanoma, 1.00E−5 Molar
Description: as §1

MALME-3M = test: NCI in vitro DTP human cell line screen, MALME-3M; assay type: cell-based; settings: Melanoma, 1.00E−5 Molar
Description: as §1

HT29 = test: NCI in vitro DTP human cell line screen, HT29; assay type: cell-based; settings: Colon Cancer, 1.00E−5 Molar
Description: as §1

HCT-15 = test: NCI in vitro DTP human cell line screen, HCT-15; assay type: cell-based; settings: Colon Cancer, 1.00E−5 Molar
Description: as §1

NCI-H322M = test: NCI in vitro DTP human cell line screen, NCI-H322M; assay type: cell-based; settings: Non-Small Cell Lung Cancer, 1.00E−5 Molar
Description: as §1

SNB-19 = test: NCI in vitro DTP human cell line screen, SNB-19; assay type: cell-based; settings: CNS Cancer, 1.00E−5 Molar
Description: as §1

HL-60(TB) = test: NCI in vitro DTP human cell line screen, HL-60(TB); assay type: cell-based; settings: Leukemia, 1.00E−5 Molar
Description: as §1

MDA-MB-468 = test: NCI in vitro DTP human cell line screen, MDA-MB-468; assay type: cell-based; settings: Breast Cancer, 1.00E−5 Molar
Description: as §1

NCI-H23 = test: NCI in vitro DTP human cell line screen, NCI-H23; assay type: cell-based; settings: Non-Small Cell Lung Cancer, 1.00E−5 Molar
Description: as §1

60 cancer lines = test: NCI cell toxicity assay of 60 cancer lines, whole panel summary; assay type: cell-based, human; settings: mean over all cell lines; 1.00E−5 Molar
Description: as §1

HOP-62 = test: NCI in vitro DTP human cell line screen, HOP-62; assay type: cell-based; settings: Non-Small Cell Lung Cancer, 1.00E−5 Molar
Description: as §1

NCI-H522 = test: NCI in vitro DTP human cell line screen, NCI-H522; assay type: cell-based; settings: Non-Small Cell Lung Cancer, 1.00E−5 Molar
Description: as §1

MDA-MB-231/ATCC = test: NCI in vitro DTP human cell line screen, MDA-MB-231/ATCC; assay type: cell-based; settings: Breast Cancer, 1.00E−5 Molar
Description: as §1

MCF7 = test: NCI in vitro DTP human cell line screen, MCF7; assay type: cell-based; settings: Breast Cancer, 1.00E−5 Molar
Description: as §1

SMILES: O=c1c2ccccc2sc2c(Cl)c(SCc3ccc(Cl)cc3)ccc12 [No. 26, 4-Chloro-3-(4-chlorobenzylthio)-9H-thioxanthen-9-one]
- Growth Percent (HCT-116): 96.31%
- Growth Percent (K562): 113.64%
- Growth Percent (CAKI-1): 98.76%
- Growth Percent (UACC-62): 92.54%
- Growth Percent (UO-31): 89.66%
- cell viabilities of A3 cell lines (MTT assay) (A3 cell lines): 62.4%
- Growth Percent (SR): 93.51%
- Growth Percent (SN12C): 94.51%
- Growth Percent (OVCAR-4): 107.67%
- Growth Percent (U251): 86.21%
- Growth Percent (RPMI-8226): 91.09%
- Growth Percent (OVCAR-8): 86.47%
- Growth Percent (CCRF-CEM): 92.28%
- Growth Percent (SF-295): 112.42%
- Growth Percent (UACC-257): 92.94%
- cell viabilities of A control cell lines (MTT assay) (A control cell lines): 96.8 ± 4.29%
- Growth Percent (SK-OV-3): 97.10%
- Growth Percent (EKVX): 110.82%
- Growth Percent (HCC-2998): 107.66%
- Growth Percent (RXF 393): 109.38%
- Growth Percent (KM12): 107.42%
- Growth Percent (DU145): 108.56%
- Growth Percent (BT-549): 94.67%
- Growth Percent (COLO 205): 108.87%
- Growth Percent (HOP-92): 69.89%
- viability [1]: 58.7 ± 5.55%
- Growth Percent (SW-620): 105.00%
- Growth Percent (SK-MEL-28): 114.10%
- Growth Percent (NCI-H226): 94.77%
- Growth Percent (MDA-MB-435): 108.59%
- Growth Percent (MOLT-4): 96.00%
- Growth Percent (SF-268): 101.57%
- Growth Percent (SK-MEL-5): 101.76%
- Growth Percent (MALME-3M): 105.22%
- Growth Percent (HT29): 103.09%
- Growth Percent (HCT-15): 104.80%
- Growth Percent (NCI-H322M): 101.60%
- Growth Percent (SNB-19): 96.85%
- Growth Percent (HL-60(TB)): 105.29%
- Growth Percent (MDA-MB-468): 96.96%
- Growth Percent (NCI-H23): 96.57%
- Growth Percent, Mean (60 cancer lines): 99.47%
- Growth Percent (HOP-62): 89.02%
- Growth Percent (NCI-H522): 81.19%
- Growth Percent (MDA-MB-231/ATCC): 95.00%
- Growth Percent (MCF7): 94.48%

From US8410161B2, “Thioxanthone ring system derivatives” (National Defense Medical Center, priority 2010, dated 2013)
